According to paper PMC12809313, “New Sulfonate-Semicarbazone Hybrid Molecules: Synthesis, Theoretical Evaluations, Molecular Simulations, and Butyrylcholinesterase Inhibition Activity” (ACS Omega, 2025):
Values joined by “and” are separate entries in the source; they are usually repeats but may differ in a detail not shown here. Identical values can stand only once.

Legend:
[1] = target: T1, butyrylcholinesterase (BChE) (Homo sapiens, UniProt P06276); assay: In vitro BChE inhibition (Ellman's technique); format: biochemical; conditions: Ellman assay, five concentrations, triplicate
T1 sequence (P06276 29-602): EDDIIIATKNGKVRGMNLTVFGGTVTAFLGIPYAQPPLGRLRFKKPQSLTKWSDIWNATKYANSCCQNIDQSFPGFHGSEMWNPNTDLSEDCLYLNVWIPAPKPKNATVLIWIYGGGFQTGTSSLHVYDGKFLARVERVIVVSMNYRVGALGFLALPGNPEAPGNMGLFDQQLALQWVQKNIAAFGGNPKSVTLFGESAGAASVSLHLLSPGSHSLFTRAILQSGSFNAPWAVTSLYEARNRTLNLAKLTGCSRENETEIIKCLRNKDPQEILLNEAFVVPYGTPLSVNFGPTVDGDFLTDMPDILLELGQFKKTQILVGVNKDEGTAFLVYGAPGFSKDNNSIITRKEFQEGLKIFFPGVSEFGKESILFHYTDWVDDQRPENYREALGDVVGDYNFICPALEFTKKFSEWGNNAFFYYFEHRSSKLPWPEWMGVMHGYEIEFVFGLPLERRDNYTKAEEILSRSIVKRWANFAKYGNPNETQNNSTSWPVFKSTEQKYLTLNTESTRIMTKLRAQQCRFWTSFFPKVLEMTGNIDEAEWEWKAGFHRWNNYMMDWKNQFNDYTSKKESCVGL
Procedure: The semicarbazone derivatives were evaluated for their inhibitory activities against human acetylcholinesterase (AChE) and butyrylcholinesterase (BChE) enzymes using standard in vitro assays. The Ellman’s technique that was tailored to our lab’s needs was used to measure the activity of the cholinesterase enzyme. The test chemicals were first dissolved in DMSO at a concentration of 1 mg/mL to create stock solutions, which were then diluted 10 times with distilled water for use in the inhibition tests. Each compound’s inhibitory effects on the enzymes were evaluated at five different concentrations. Fifty microliters of distilled water, 50 μL of 0.1 M Tris–HCl buffer (pH 8.0), 15 μL of 0.015 M […] (as substrates), 30 μL of 0.06 M DTNB (5,5′-dithiobis(2-nitrobenzoic acid)), and 10 μL of enzyme solution made up the reaction mixture for the AChE and BChE tests. The absorbance of the blank solutions was measured before the substrate was added. The substrate was then added to each well to start the enzymatic reaction. Enzyme activity was kinetically assessed at 408 nm by using a microplate reader. Each inhibition measurement was repeated three times, and average values were taken when measuring the inhibitory potentials of the molecules. The IC50 values, indicating each compound’s inhibitory strength against cholinesterase, were determined by plotting percent activity versus inhibitor concentration.

[2] = target: T1, butyrylcholinesterase (BChE); assay: BChE enzyme kinetics (Lineweaver–Burk plots); format: biochemical; conditions: for inhibition type: Lineweaver–Burk plots; for Ki: substrate butyrylthiocholine iodide, Lineweaver–Burk, read-out: inhibition constant (K i)
Procedure: The enzymatic activity of BChE was evaluated at various concentrations of the substrate butyrylthiocholine iodide (BTChI) in the presence of fixed concentrations of each inhibitor. The resulting data were analyzed by Lineweaver–Burk double reciprocal plots to determine kinetic parameters such as K m, V max, and the inhibition type (Figure ).
Different concentrations of butyrylthiocholine iodide were used in the presence of three concentrations of each compound. Lineweaver–Burk plots were constructed by plotting the reciprocal of reaction velocity (1/V) against the reciprocal of substrate concentration (1/[S]). Based on these plots, the inhibition types were determined. The inhibition constant (K i) was calculated using the following equation (eq ). 2 slope=Km/Vmax×(1+[I]/Ki)

Row | Compound | BChE IC50 [1] | IC50 [1] | inhibition type [2] | Ki [2]
1 | NC(=O)N/N=C/c1ccc(OS(=O)(=O)c2cc(C(F)(F)F)cc(C(F)(F)F)c2)cc1 [Compound 11, 4-[(E)-(2-Carbamoylhydrazinylidene)methyl]phenyl 3,5-Bis(trifluoromethyl)benzene-1-sulfonate] | stronger inhibition than the reference drug pyridostigmine bromide | < 130 µM and 114 µM | – | –
2 | COc1ccc(S(=O)(=O)Oc2ccc(/C=N/NC(N)=O)cc2)cc1 [Compound 7, 4-[(E)-(2-Carbamoylhydrazinylidene)methyl]phenyl 4-Methoxybenzene-1-sulfonate] | – | 136 µM | – | –
3 | NC(=O)N/N=C/c1ccc(OS(=O)(=O)c2ccc(Cl)cc2)cc1 [Compound 3, 4-[(E)-(2-carbamoylhydrazinylidene)methyl]phenyl 4-Chlorobenzene-1-sulfonate] | – | 141 µM | – | –
4 | NC(=O)N/N=C/c1ccc(OS(=O)(=O)c2cccc(OC(F)(F)F)c2)cc1 [Compound 13, 4-[(E)-(2-Carbamoylhydrazinylidene)methyl]phenyl 3-(Trifluoromethoxy)benzene-1-sulfonate] | stronger inhibition than the reference drug pyridostigmine bromide | < 130 µM and 116 µM | – | –
5 | NC(=O)N/N=C/c1ccc(OS(=O)(=O)c2ccc3ccccc3c2)cc1 [Compound 18, 4-[(E)-(2-Carbamoylhydrazinylidene)methyl]phenyl Naphthalene-2-sulfonate] | stronger inhibition than the reference drug pyridostigmine bromide | 93.7 µM and < 130 µM | reversible competitive inhibitors | 5.49 ± 0.33 µM
6 | NC(=O)N/N=C/c1ccc(OS(=O)(=O)c2ccc(I)cc2)cc1 [Compound 5, 4-[(E)-(2-Carbamoylhydrazinylidene)methyl]phenyl 4-Iodobenzene-1-sulfonate] | – | 173 µM | – | –
7 | NC(=O)N/N=C/c1ccc(OS(=O)(=O)c2ccc(OC(F)(F)F)cc2)cc1 [Compound 14, 4-[(E)-(2-Carbamoylhydrazinylidene)methyl]phenyl 4-(Trifluoromethoxy)benzene-1-sulfonate] | stronger inhibition than the reference drug pyridostigmine bromide | < 130 µM and 130 µM | – | –
8 | Cc1ccc(S(=O)(=O)Oc2ccc(/C=N/NC(N)=O)cc2)cc1 [Compound 6, 4-[(E)-(2-Carbamoylhydrazinylidene)methyl]phenyl 4-Methylbenzene-1-sulfonate] | – | 178 µM | – | –
9 | NC(=O)N/N=C/c1ccc(OS(=O)(=O)c2ccc([N+](=O)[O-])cc2)cc1 [Compound 15, 4-[(E)-(2-Carbamoylhydrazinylidene)methyl]phenyl 4-Nitrobenzene-1-sulfonate] | – | 347 µM | – | –
10 | NC(=O)N/N=C/c1ccc(OS(=O)(=O)c2ccccc2C(F)(F)F)cc1 [Compound 8, 4-[(E)-(2-Carbamoylhydrazinylidene)methyl]phenyl 2-(Trifluoromethyl)benzene-1-sulfonate] | – | 172 µM | – | –
11 | NC(=O)N/N=C/c1ccc(OS(=O)(=O)c2cccc(C(F)(F)F)c2)cc1 [Compound 9, 4-[(E)-(2-Carbamoylhydrazinylidene)methyl]phenyl-3-(trifluoromethyl)benzene-1-sulfonate] | – | 147 µM | – | –
12 | NC(=O)N/N=C/c1ccc(OS(=O)(=O)c2ccc(-c3ccccc3)cc2)cc1 [Compound 16, 4-[(E)-(2-Carbamoylhydrazinylidene)methyl]phenyl [1,1′-Biphenyl]-4-sulfonate] | stronger inhibition than the reference drug pyridostigmine bromide | < 130 µM and 112 µM | – | –
13 | NC(=O)N/N=C/c1ccc(OS(=O)(=O)c2ccc(Br)cc2)cc1 [Compound 4, 4-[(E)-(2-Carbamoylhydrazinylidene)methyl]phenyl 4-Bromobenzene-1-sulfonate] | – | 177 µM | – | –
14 | NC(=O)N/N=C/c1ccc(OS(=O)(=O)c2ccc(C(F)(F)F)cc2)cc1 [Compound 10, 4-[(E)-(2-Carbamoylhydrazinylidene)methyl]phenyl-4-(trifluoromethyl)benzene-1-sulfonate] | – | 139 µM | – | –
15 | NC(=O)N/N=C/c1ccc(OS(=O)(=O)c2ccccc2OC(F)(F)F)cc1 [Compound 12, 4-[(E)-(2-Carbamoylhydrazinylidene)methyl]phenyl 2-(Trifluoromethoxy)benzene-1-sulfonate] | stronger inhibition than the reference drug pyridostigmine bromide | 61.9 µM and < 130 µM | reversible competitive inhibitors | 11.9 ± 3.31 µM
16 | NC(=O)N/N=C/c1ccc(OS(=O)(=O)c2ccc(F)cc2)cc1 [Compound 2, 4-[(E)-(2-Carbamoylhydrazinylidene)methyl]phenyl 4-Fluorobenzene-1-sulfonate] | – | 161 µM | – | –
17 | NC(=O)N/N=C/c1ccc(OS(=O)(=O)c2ccccc2)cc1 [Compound 1, 4-[(E)-(2-Carbamoylhydrazinylidene)methyl]phenyl Benzenesulfonate] | – | 139 µM | – | –
18 | NC(=O)N/N=C/c1ccc(OS(=O)(=O)c2cccc3ccccc23)cc1 [Compound 17, 4-[(E)-(2-Carbamoylhydrazinylidene)methyl]phenyl Naphthalene-1-sulfonate] | stronger inhibition than the reference drug pyridostigmine bromide | 77 µM and < 130 µM | reversible competitive inhibitors | 9.08 ± 3.51 µM
